In patent US20240342152A1, “Method of Treatment” (Vanda Pharmaceuticals Inc., priority 2022, published 2024):

What was measured:
[1] = test system: adults with schizophrenia or bipolar I disorder; assay: Clinical study of tolerability of faster iloperidone titration (orthostatic hypotension monitoring); assay type: in vivo; conditions: n=12
Description: A clinical study of adults (n=12, age 18-65, inclusive) with schizophrenia or bipolar I disorder is conducted to assess the tolerability of a faster iloperidone titration scheme. Patients are assigned to one of two cohorts based on CYP2D6 phenotype.
CYP2D6 non-poor metabolizers are titrated to a clinical dose of 24 mg/day (12 mg twice daily) by administering 1 mg twice per day on day 1, 3 mg twice per day on day 2, 6 mg twice per day on day 3, 9 mg twice per day on day 4, and 12 mg twice per day on day 5. CYP2D6 poor metabolizers are titrated to 12 mg/day (6 mg twice daily) by administering 1 mg twice per day on day 1, 3 mg twice per day on day 2, and 6 mg twice per day on day 3. In each case, the target dose of 24 mg/day or 12 mg/day is continued until day 7.
Patients are monitored for OH by measuring blood pressure after lying supine for three minutes and two minutes after standing. OH is defined as a fall in systolic blood pressure of 20 mmHg or more or a fall in diastolic blood pressure of 10 mmHg or more.
The results are compared to historical placebo data from a prior study of the FDA-approved titration regimen.

[2] = test system: patients with schizophrenia; conditions: patients continuing on therapy past the titration period; cited from earlier work
[3] = test system: patients with bipolar I disorder; assay: Phase III clinical study of iloperidone in acute manic and mixed episodes associated with bipolar I disorder; assay type: in vivo, adults
Description: In a Phase III clinical study of iloperidone as a treatment of acute manic and mixed episodes associated with bipolar I disorder, approximately 400 volunteers with a history of bipolar disorder and suffering from a current episode of mania are randomized to receive either iloperidone or placebo in a 1:1 ratio. Treatment efficacy is assessed using the Young Mania Rating Scale (YMRS), a known rating scale of clinical severity in the core symptoms of mania, as well as the Clinician Global Impression of Severity (CGI-S) and the Clinician Global Impression of Change (CGI-C).
YMRS assessments are made at baseline and during days 7, 10, 14, 21, and 28 using the following key: • 0=reports no decrease in sleep; • 1=sleeping less than normal amount by up to one hour; • 2=sleeping less than normal by more than one hour; • 3=reports decreased need for sleep; and • 4=denies need for sleep.
Patients receive four weeks of double-blind treatment comprising the administration of 24 mg/d iloperidone b.i.d. (12 mg twice daily), 12 mg/d b.i.d. (6 mg twice daily) for poor metabolizers, or placebo. CYP2D6 non-poor metabolizers are titrated to a clinical dose of 24 mg/day (12 mg twice daily) by administering 1 mg twice per day on day 1, 3 mg twice per day on day 2, 6 mg twice per day on day 3, 9 mg twice per day on day 4, and 12 mg twice per day on day 5 and each day thereafter. CYP2D6 poor metabolizers are titrated to 12 mg/day (6 mg twice daily) by administering 1 mg twice per day on day 1, 3 mg twice per day on day 2, and 6 mg twice per day on day 3 and each day thereafter.

[4] = endpoint (day 28), ITT population, N = 198

COc1cc(C(C)=O)ccc1OCCCN1CCC(c2noc3cc(F)ccc23)CC1 [Iloperidone, 1-[4-[3-[4-(6-fluoro-1,2-benzisoxazol-3-yl)-1-piperidinyl]propoxy]-3-methoxyphenyl]ethanone]
Tolerability of faster titration ([1]; compared to historical placebo data): well-tolerated
Patients meeting orthostatic hypotension (OH) criteria ([1]; faster titration to 24 mg/day (12 mg/day poor metabolizers), to day 7, OH = fall in systolic ≥20 mmHg or diastolic ≥10 mmHg): Only one patient receiving iloperidone met the OH criteria
Incidents of dizziness, syncope, or accidental trauma ([1]; faster titration, to day 7): no reported incidents of dizziness, syncope, or accidental trauma
Other adverse events ([1]; faster titration, to day 7): no other adverse events
Efficacy in treating schizophrenia relative to haloperidol and risperidone [2]: comparable to that of haloperidol and risperidone
Sedation reported as treatment-emergent adverse event ([3]; N = 206): 5 (2.4) n (%)
Somnolence reported as treatment-emergent adverse event ([3]; N = 206): 11 (5.3) n (%)
Onset of statistically significant YMRS benefit versus placebo ([3]; YMRS assessment): as early as the end of week 2
YMRS Total Score, Diff (iloperidone vs placebo) ([3]; day 28, ITT population, p-value 0.000008): −4.0
CGI-C, Diff (iloperidone vs placebo) ([3]; day 28, ITT population, p-value 0.0002): −0.5
CGI-S, Diff (iloperidone vs placebo) ([3]; day 28, ITT population, p-value 0.0005): −0.4
MADRS Total Score, Diff (iloperidone vs placebo) ([3]; day 28, ITT population, p-value 0.1365): −0.9
CGI-C [3, 4]: 2.3
CGI-S, change from baseline [3, 4]: −1.5
MADRS Total Score, change from baseline [3, 4]: −2.7
YMRS Total Score, change from baseline ([3]; endpoint (day 28), ITT population, N = 198, 24 mg/d b.i.d. (12 mg/d for CYP2D6 poor metabolizers)): −14.0
YMRS change associated with SNP rs62300864 (SHROOM3) ([3]; iloperidone-treated group (n=167), p 1.64 × 10^−6): 12.08 ± 2.43
YMRS change associated with SNP rs55837573 (RELN) ([3]; iloperidone-treated group (n=167), p 2.48 × 10^−6): −4.61 ± 0.94
YMRS change associated with SNP rs76876307 (FAT3) ([3]; iloperidone-treated group (n=167), p 5.27 × 10^−6): 15.44 ± 3.28
YMRS change associated with SNP rs1118464 (NAV2) ([3]; iloperidone-treated group (n=167), p 6.98 × 10^−6): −4.15 ± 0.89
YMRS sleep component, least squares mean change from baseline to day 28 ([3]; placebo −0.95, p=0.008): −1.26
